Data on 1 compound can be found in ChEMBL document CHEMBL1132066, “Synthesis of alpha-C(1-->3)-mannopyranoside of N-acetylgalactosamine, a new beta-galactosidase inhibitor” (Bioorg Med Chem Lett, 1999).

Assay [1] addresses Beta-galactosidase (Escherichia coli) (UniProt Q8VNN2). In words: Compound was evaluated for the percentage inhibition of beta-galactosidase enzyme from Escherichia coli at the concentration of 1 mM.
The target of the next assay is Beta-galactosidase (Escherichia coli, UniProt Q8VNN2). As to the kind of experiment: Concentration required to inhibit beta-galactosidase enzyme by 50% from Escherichia coli was reported.
Assay [2] concerns Beta-galactosidase (Canavalia ensiformis). In words: Compound was evaluated for the percentage inhibition of beta-galactosidase enzyme from jack bean at the concentration of 1 mM.

What is called inhibition is the change of the read-out against control, counted positive when it falls. What is called IC50 is the concentration needed to halve the response being measured.

Chain of Beta-galactosidase (Escherichia coli) (Q8VNN2 whole entry, looked up): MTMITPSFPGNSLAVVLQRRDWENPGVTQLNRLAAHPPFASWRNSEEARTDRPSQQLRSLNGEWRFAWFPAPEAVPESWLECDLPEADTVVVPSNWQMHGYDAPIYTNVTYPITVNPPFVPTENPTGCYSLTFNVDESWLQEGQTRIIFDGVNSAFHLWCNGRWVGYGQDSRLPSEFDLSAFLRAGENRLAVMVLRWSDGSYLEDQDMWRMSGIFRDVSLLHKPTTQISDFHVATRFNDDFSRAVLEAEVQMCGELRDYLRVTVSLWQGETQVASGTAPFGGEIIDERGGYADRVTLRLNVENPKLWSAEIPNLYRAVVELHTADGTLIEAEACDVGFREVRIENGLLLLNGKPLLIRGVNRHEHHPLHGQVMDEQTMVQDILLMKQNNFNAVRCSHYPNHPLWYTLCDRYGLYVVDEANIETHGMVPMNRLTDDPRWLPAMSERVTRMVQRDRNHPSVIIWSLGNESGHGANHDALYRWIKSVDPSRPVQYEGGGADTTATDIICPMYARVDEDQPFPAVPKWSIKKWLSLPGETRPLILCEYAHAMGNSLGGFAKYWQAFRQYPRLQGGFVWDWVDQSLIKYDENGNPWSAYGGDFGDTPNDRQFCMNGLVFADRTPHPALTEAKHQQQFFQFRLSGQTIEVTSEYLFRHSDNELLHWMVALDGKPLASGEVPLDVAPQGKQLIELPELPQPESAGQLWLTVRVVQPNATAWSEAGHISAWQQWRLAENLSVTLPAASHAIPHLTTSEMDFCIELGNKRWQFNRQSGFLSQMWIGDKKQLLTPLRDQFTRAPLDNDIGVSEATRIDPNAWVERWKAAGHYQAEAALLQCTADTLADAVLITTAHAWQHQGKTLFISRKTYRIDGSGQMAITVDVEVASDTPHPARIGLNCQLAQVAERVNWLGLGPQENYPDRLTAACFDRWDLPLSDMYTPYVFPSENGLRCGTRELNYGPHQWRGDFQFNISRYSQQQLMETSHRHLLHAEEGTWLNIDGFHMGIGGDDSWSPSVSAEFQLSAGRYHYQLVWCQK
Chain of Beta-galactosidase (Q8VNN2 whole entry): as the sequence (Q8VNN2 whole entry, looked up) above

`CC(=O)N[C@@H]1C(O)O[C@H](CO)[C@H](O)[C@@H]1C[C@H]1O[C@H](CO)[C@@H](O)[C@H](O)[C@@H]1O.CC(=O)N[C@H]1C(O)O[C@H](C(O)CO)[C@@H]1C[C@H]1O[C@H](CO)[C@@H](O)[C@H](O)[C@@H]1O` (stereo partly drawn): the inhibition in assay [1] was determined as 86%; in assay [2], 92%. Moreover, it took 500 µM to reach half-maximal inhibition against Beta-galactosidase (IC50).
